From ChEMBL document CHEMBL3991601, “The target landscape of clinical kinase drugs” (Science, 2017)
Active and inactive are the calls of the source. Rule as the data show it, for most assays here: actives have a measured Kd and inactives only a lower limit.
Also: in the data inactive means no Kd found up to 30 µM.

What follows are compounds tested against Tyrosine-protein kinase ABL1 (Homo sapiens, UniProt P00519).
`CCN1CCN(Cc2ccc(-c3cc4c(N[C@H](C)c5ccccc5)ncnc4[nH]3)cc2)CC1` [AEE-788] was tested, and the Kd was 1.09 µM (active). With `Cn1ncc(Cl)c1-c1cc(C(=O)N[C@H](CN)Cc2cccc(F)c2)sc1Cl` [AFURESERTIB] the Kd was > 30 µM (inactive). In the case of `Cc1ccc(NC(=O)c2ccc(CN3CC[C@H](N(C)C)C3)c(C(F)(F)F)c2)cc1Nc1nccc(-c2cncnc2)n1` [BAFETINIB], the Kd is reported as 0.026 µM (active). `CCS(=O)(=O)N1CC(CC#N)(n2cc(-c3ncnc4[nH]ccc34)cn2)C1` [BARICITINIB] was tested, and the Kd was > 30 µM (inactive). For `Nc1nc(N)c2nc(-c3cccc(O)c3)c(-c3cccc(O)c3)nc2n1` [TG100-115], the Kd was > 30 µM (inactive).

These compounds were tested against T1, Activin receptor type-1 (Homo sapiens, UniProt Q04771).
T1 sequence (Q04771 whole entry): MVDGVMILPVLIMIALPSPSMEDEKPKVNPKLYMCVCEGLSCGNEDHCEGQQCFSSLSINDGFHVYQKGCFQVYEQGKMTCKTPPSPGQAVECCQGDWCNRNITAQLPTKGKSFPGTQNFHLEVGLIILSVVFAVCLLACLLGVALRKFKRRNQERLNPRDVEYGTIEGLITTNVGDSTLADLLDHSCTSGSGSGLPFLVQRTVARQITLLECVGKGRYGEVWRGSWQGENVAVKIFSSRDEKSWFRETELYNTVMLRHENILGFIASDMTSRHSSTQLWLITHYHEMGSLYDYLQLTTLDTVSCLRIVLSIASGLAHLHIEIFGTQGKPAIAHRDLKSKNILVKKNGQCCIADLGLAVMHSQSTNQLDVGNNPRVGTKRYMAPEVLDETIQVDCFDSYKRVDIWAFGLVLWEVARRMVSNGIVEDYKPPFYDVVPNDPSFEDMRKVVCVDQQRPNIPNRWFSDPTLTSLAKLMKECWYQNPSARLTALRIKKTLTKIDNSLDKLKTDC
With `CCN1CCN(Cc2ccc(-c3cc4c(N[C@H](C)c5ccccc5)ncnc4[nH]3)cc2)CC1` [AEE-788] the Kd was 16.1 µM (active). For `Cn1ncc(Cl)c1-c1cc(C(=O)N[C@H](CN)Cc2cccc(F)c2)sc1Cl` [AFURESERTIB], the Kd was > 30 µM (inactive). In the case of `Cc1ccc(NC(=O)c2ccc(CN3CC[C@H](N(C)C)C3)c(C(F)(F)F)c2)cc1Nc1nccc(-c2cncnc2)n1` [BAFETINIB], the Kd is reported as > 30 µM (inactive). In the case of `CCS(=O)(=O)N1CC(CC#N)(n2cc(-c3ncnc4[nH]ccc34)cn2)C1` [BARICITINIB], the Kd is reported as > 30 µM (inactive).

These compounds were tested against BMP-2-inducible protein kinase (Homo sapiens, UniProt Q9NSY1).
BMP-2-inducible protein kinase, sequence (Q9NSY1 whole entry): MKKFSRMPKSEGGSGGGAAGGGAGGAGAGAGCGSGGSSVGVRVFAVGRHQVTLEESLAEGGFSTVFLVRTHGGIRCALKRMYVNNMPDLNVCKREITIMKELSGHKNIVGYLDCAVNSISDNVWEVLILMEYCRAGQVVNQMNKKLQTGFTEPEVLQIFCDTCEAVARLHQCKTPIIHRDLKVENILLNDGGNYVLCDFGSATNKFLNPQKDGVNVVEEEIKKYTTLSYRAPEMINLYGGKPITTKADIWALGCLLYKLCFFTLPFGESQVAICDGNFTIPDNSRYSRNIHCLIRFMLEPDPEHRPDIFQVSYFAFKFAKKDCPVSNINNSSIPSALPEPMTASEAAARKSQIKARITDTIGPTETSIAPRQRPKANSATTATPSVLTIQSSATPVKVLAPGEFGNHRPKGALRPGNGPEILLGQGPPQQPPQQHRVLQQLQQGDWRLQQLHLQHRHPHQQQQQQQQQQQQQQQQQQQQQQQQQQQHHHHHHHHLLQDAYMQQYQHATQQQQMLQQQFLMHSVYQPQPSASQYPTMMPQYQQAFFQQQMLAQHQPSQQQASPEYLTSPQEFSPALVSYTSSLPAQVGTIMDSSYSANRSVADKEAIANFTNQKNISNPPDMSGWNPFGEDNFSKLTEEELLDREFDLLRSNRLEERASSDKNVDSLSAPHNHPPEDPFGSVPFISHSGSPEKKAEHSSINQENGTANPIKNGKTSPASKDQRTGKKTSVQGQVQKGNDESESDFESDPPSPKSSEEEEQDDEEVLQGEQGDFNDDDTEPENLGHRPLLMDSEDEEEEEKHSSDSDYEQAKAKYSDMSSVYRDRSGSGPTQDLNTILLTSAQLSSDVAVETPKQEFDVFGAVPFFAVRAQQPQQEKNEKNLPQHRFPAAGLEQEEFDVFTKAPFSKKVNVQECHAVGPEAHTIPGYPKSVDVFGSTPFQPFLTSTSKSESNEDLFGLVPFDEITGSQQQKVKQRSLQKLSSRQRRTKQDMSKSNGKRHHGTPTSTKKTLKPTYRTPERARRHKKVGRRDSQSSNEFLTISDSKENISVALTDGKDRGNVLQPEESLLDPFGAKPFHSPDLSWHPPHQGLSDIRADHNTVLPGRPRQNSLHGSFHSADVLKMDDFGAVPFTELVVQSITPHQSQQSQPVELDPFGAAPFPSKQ
For `CCN1CCN(Cc2ccc(-c3cc4c(N[C@H](C)c5ccccc5)ncnc4[nH]3)cc2)CC1` [AEE-788], the Kd was > 30 µM (inactive). For `Cn1ncc(Cl)c1-c1cc(C(=O)N[C@H](CN)Cc2cccc(F)c2)sc1Cl` [AFURESERTIB], the Kd was > 30 µM (inactive). For `Cc1ccc(NC(=O)c2ccc(CN3CC[C@H](N(C)C)C3)c(C(F)(F)F)c2)cc1Nc1nccc(-c2cncnc2)n1` [BAFETINIB], the Kd was > 30 µM (inactive).

These compounds were tested against Ephrin type-A receptor 4 (Homo sapiens, UniProt P54764).
Ephrin type-A receptor 4, sequence (P54764 whole entry): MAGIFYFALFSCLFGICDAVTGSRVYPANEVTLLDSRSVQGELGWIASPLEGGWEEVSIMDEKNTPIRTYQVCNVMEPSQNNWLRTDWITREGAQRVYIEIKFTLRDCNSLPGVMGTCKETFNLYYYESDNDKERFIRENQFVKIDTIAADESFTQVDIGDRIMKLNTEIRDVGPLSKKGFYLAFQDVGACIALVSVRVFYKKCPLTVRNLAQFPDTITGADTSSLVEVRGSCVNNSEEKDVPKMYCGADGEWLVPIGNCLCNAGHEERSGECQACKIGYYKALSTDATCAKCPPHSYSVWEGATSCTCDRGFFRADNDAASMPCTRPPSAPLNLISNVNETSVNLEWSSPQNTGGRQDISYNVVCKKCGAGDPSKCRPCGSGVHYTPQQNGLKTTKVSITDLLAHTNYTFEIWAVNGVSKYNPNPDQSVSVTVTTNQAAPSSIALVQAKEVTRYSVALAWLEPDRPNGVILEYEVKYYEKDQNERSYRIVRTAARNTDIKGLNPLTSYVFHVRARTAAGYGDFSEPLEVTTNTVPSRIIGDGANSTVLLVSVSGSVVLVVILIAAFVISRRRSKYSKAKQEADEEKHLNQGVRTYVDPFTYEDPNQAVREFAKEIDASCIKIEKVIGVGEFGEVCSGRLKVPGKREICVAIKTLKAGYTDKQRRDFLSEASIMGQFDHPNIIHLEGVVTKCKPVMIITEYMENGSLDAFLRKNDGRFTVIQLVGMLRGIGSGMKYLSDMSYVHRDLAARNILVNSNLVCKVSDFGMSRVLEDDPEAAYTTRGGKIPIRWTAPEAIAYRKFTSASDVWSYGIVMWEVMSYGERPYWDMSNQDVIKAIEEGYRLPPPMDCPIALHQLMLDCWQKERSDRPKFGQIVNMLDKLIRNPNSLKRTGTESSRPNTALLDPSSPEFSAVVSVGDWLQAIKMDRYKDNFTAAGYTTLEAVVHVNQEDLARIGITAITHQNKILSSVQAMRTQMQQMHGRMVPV
For `CCN1CCN(Cc2ccc(-c3cc4c(N[C@H](C)c5ccccc5)ncnc4[nH]3)cc2)CC1` [AEE-788], the Kd was > 30 µM (inactive). For `Cn1ncc(Cl)c1-c1cc(C(=O)N[C@H](CN)Cc2cccc(F)c2)sc1Cl` [AFURESERTIB], the Kd was > 30 µM (inactive). For `Cc1ccc(NC(=O)c2ccc(CN3CC[C@H](N(C)C)C3)c(C(F)(F)F)c2)cc1Nc1nccc(-c2cncnc2)n1` [BAFETINIB], the Kd was 1.98 µM (active). `CCS(=O)(=O)N1CC(CC#N)(n2cc(-c3ncnc4[nH]ccc34)cn2)C1` [BARICITINIB] was tested, and the Kd was > 30 µM (inactive).

What follows are compounds tested against T2, Interleukin-1 receptor-associated kinase 4 (Homo sapiens, UniProt Q9NWZ3).
T2 sequence (Q9NWZ3 whole entry): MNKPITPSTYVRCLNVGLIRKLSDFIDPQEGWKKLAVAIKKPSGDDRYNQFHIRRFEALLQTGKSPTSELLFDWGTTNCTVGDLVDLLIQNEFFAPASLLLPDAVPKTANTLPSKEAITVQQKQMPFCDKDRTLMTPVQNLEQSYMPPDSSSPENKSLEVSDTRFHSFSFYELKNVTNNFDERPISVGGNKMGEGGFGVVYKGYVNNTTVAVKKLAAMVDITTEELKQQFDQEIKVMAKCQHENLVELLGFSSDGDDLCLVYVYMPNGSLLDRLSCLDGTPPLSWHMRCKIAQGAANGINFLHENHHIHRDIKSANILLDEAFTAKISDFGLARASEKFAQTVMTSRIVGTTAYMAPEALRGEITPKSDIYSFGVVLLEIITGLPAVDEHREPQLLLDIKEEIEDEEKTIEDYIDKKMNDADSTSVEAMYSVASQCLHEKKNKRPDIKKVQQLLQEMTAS
In the case of `CCN1CCN(Cc2ccc(-c3cc4c(N[C@H](C)c5ccccc5)ncnc4[nH]3)cc2)CC1` [AEE-788], the Kd is reported as > 30 µM (inactive). In the case of `Cn1ncc(Cl)c1-c1cc(C(=O)N[C@H](CN)Cc2cccc(F)c2)sc1Cl` [AFURESERTIB], the Kd is reported as > 30 µM (inactive). For `Cc1ccc(NC(=O)c2ccc(CN3CC[C@H](N(C)C)C3)c(C(F)(F)F)c2)cc1Nc1nccc(-c2cncnc2)n1` [BAFETINIB], the Kd was > 30 µM (inactive). With `CCS(=O)(=O)N1CC(CC#N)(n2cc(-c3ncnc4[nH]ccc34)cn2)C1` [BARICITINIB] the Kd was > 30 µM (inactive).

What follows are compounds tested against Tyrosine-protein kinase Lck (Homo sapiens, UniProt P06239).
Tyrosine-protein kinase Lck, sequence (P06239 whole entry): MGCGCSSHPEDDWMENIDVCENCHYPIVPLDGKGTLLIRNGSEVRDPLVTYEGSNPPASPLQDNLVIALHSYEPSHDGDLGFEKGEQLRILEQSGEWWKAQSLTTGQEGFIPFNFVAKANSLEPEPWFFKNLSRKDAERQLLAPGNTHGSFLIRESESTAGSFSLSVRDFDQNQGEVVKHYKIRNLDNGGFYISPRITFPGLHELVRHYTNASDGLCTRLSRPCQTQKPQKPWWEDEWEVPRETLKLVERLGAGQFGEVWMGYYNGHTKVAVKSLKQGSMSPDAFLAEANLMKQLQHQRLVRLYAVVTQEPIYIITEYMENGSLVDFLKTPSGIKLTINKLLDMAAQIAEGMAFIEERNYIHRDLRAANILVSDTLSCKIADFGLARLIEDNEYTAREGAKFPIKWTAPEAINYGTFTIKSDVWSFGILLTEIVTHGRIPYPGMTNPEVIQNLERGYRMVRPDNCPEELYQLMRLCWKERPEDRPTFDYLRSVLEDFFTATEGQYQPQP
For `CCN1CCN(Cc2ccc(-c3cc4c(N[C@H](C)c5ccccc5)ncnc4[nH]3)cc2)CC1` [AEE-788], the Kd was > 30 µM (inactive). `Cn1ncc(Cl)c1-c1cc(C(=O)N[C@H](CN)Cc2cccc(F)c2)sc1Cl` [AFURESERTIB] was tested, and the Kd was > 30 µM (inactive). In the case of `CCS(=O)(=O)N1CC(CC#N)(n2cc(-c3ncnc4[nH]ccc34)cn2)C1` [BARICITINIB], the Kd is reported as > 30 µM (inactive).

Each compound was assayed against Serine/threonine-protein kinase PAK 4 (Homo sapiens, UniProt O96013).
Serine/threonine-protein kinase PAK 4, sequence (O96013 whole entry): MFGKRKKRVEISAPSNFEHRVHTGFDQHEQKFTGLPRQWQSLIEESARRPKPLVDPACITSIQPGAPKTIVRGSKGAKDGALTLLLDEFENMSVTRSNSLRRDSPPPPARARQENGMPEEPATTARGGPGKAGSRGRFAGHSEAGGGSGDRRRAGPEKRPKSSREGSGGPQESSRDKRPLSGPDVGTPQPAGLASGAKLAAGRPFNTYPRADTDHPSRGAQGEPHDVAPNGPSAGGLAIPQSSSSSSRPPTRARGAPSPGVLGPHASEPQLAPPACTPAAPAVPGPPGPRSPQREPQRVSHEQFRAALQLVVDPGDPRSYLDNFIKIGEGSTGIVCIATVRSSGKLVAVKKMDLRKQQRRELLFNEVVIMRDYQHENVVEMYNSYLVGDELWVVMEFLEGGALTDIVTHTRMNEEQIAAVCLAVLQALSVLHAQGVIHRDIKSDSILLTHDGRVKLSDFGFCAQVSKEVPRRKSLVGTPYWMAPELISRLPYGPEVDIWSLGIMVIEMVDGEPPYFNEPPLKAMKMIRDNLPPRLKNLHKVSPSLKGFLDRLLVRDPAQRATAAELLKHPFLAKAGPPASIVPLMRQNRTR
In the case of `CCN1CCN(Cc2ccc(-c3cc4c(N[C@H](C)c5ccccc5)ncnc4[nH]3)cc2)CC1` [AEE-788], the Kd is reported as > 30 µM (inactive). `Cn1ncc(Cl)c1-c1cc(C(=O)N[C@H](CN)Cc2cccc(F)c2)sc1Cl` [AFURESERTIB] was tested, and the Kd was > 30 µM (inactive). `Cc1ccc(NC(=O)c2ccc(CN3CC[C@H](N(C)C)C3)c(C(F)(F)F)c2)cc1Nc1nccc(-c2cncnc2)n1` [BAFETINIB] was tested, and the Kd was > 30 µM (inactive). In the case of `CCS(=O)(=O)N1CC(CC#N)(n2cc(-c3ncnc4[nH]ccc34)cn2)C1` [BARICITINIB], the Kd is reported as > 30 µM (inactive).

What follows are compounds tested against Serine/threonine-protein kinase N2 (Homo sapiens, UniProt Q16513).
Serine/threonine-protein kinase N2, sequence (Q16513 whole entry): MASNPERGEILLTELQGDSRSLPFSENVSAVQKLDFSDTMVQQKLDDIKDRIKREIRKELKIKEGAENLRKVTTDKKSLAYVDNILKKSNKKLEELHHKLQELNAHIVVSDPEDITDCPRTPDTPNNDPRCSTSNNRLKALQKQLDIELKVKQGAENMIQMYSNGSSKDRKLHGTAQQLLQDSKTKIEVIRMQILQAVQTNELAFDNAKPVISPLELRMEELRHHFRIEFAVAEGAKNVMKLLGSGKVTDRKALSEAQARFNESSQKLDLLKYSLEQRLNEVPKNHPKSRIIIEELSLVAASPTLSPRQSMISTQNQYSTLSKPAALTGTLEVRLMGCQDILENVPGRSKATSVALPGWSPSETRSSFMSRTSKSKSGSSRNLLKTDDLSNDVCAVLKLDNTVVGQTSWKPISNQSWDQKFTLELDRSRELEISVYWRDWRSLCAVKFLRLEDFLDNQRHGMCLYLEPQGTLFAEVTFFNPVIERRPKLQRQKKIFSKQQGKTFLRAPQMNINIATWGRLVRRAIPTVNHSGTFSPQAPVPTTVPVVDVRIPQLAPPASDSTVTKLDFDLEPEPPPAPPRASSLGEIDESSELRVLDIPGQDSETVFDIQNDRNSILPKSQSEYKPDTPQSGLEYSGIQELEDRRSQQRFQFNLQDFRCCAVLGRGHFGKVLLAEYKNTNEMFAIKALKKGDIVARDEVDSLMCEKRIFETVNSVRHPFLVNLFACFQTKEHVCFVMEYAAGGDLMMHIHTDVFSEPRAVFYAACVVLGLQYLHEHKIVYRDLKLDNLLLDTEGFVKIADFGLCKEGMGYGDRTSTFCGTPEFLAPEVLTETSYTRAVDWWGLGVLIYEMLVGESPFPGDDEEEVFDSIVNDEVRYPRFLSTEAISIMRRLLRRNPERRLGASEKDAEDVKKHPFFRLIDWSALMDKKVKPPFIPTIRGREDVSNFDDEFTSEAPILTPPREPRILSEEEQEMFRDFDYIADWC
In the case of `CCN1CCN(Cc2ccc(-c3cc4c(N[C@H](C)c5ccccc5)ncnc4[nH]3)cc2)CC1` [AEE-788], the Kd is reported as > 30 µM (inactive). `Cn1ncc(Cl)c1-c1cc(C(=O)N[C@H](CN)Cc2cccc(F)c2)sc1Cl` [AFURESERTIB] was tested, and the Kd was > 30 µM (inactive). With `Cc1ccc(NC(=O)c2ccc(CN3CC[C@H](N(C)C)C3)c(C(F)(F)F)c2)cc1Nc1nccc(-c2cncnc2)n1` [BAFETINIB] the Kd was > 30 µM (inactive).

The compounds below were run against T3, cGMP-dependent protein kinase 1 (Homo sapiens, UniProt Q13976).
T3 sequence (Q13976 whole entry): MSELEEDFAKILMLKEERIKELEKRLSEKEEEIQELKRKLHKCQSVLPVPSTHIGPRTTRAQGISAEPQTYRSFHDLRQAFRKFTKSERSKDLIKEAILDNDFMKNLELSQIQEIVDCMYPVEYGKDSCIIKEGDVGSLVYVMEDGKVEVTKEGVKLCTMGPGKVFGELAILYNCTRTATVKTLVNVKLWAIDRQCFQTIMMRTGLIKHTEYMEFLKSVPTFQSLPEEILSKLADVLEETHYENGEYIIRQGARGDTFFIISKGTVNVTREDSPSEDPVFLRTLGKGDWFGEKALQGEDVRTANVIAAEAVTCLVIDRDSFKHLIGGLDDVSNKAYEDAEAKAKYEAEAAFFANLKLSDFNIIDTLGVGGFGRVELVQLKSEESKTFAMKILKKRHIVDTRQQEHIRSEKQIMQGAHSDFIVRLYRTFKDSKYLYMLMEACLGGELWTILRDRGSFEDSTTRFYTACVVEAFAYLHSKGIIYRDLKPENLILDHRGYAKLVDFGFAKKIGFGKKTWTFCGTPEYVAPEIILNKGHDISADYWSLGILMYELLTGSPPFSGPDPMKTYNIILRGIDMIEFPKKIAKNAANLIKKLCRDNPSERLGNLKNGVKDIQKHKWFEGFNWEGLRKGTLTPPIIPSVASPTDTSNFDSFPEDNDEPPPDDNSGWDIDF
In the case of `CCN1CCN(Cc2ccc(-c3cc4c(N[C@H](C)c5ccccc5)ncnc4[nH]3)cc2)CC1` [AEE-788], the Kd is reported as > 30 µM (inactive). For `Cn1ncc(Cl)c1-c1cc(C(=O)N[C@H](CN)Cc2cccc(F)c2)sc1Cl` [AFURESERTIB], the Kd was > 30 µM (inactive). With `Cc1ccc(NC(=O)c2ccc(CN3CC[C@H](N(C)C)C3)c(C(F)(F)F)c2)cc1Nc1nccc(-c2cncnc2)n1` [BAFETINIB] the Kd was > 30 µM (inactive). For `CCS(=O)(=O)N1CC(CC#N)(n2cc(-c3ncnc4[nH]ccc34)cn2)C1` [BARICITINIB], the Kd was > 30 µM (inactive).

These compounds were tested against T4, Exosome RNA helicase MTR4 (Homo sapiens, UniProt P42285).
T4 sequence (P42285 whole entry): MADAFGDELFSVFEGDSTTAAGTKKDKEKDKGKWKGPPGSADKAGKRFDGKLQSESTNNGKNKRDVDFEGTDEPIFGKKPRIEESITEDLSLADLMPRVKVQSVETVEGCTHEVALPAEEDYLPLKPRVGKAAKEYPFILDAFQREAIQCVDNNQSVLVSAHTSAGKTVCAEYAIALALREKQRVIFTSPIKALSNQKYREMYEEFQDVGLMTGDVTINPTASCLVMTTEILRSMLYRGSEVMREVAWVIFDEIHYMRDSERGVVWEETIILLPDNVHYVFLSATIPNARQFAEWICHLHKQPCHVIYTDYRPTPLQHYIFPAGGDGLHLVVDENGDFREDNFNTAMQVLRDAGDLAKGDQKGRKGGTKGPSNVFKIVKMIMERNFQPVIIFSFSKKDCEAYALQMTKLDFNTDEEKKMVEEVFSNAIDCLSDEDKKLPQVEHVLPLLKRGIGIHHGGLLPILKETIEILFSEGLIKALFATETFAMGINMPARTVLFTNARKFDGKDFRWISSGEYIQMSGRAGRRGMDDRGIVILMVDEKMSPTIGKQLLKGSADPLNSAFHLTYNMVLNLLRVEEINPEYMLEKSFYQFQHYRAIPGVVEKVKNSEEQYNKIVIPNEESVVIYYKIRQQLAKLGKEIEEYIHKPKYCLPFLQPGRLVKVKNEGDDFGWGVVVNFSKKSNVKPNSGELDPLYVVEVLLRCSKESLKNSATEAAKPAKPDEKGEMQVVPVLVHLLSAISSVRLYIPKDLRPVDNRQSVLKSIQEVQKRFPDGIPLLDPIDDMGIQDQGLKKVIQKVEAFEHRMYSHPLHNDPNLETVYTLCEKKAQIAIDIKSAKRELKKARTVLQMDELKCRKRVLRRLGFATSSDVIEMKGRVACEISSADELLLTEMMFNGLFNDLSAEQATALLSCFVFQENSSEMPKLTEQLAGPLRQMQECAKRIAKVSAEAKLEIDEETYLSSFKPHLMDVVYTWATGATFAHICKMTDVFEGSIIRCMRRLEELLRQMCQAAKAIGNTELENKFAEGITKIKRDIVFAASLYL
`CCN1CCN(Cc2ccc(-c3cc4c(N[C@H](C)c5ccccc5)ncnc4[nH]3)cc2)CC1` [AEE-788] was tested, and the Kd was > 30 µM (inactive). In the case of `Cn1ncc(Cl)c1-c1cc(C(=O)N[C@H](CN)Cc2cccc(F)c2)sc1Cl` [AFURESERTIB], the Kd is reported as > 30 µM (inactive). For `Cc1ccc(NC(=O)c2ccc(CN3CC[C@H](N(C)C)C3)c(C(F)(F)F)c2)cc1Nc1nccc(-c2cncnc2)n1` [BAFETINIB], the Kd was > 30 µM (inactive). For `CCS(=O)(=O)N1CC(CC#N)(n2cc(-c3ncnc4[nH]ccc34)cn2)C1` [BARICITINIB], the Kd was > 30 µM (inactive). For `Nc1nc(N)c2nc(-c3cccc(O)c3)c(-c3cccc(O)c3)nc2n1` [TG100-115], the Kd was > 30 µM (inactive).
